Measurements reported in US20230157308A1, “PERMEABILIZED MICROBIAL CELL CATALYSTS” (DANMARKS TEKNISKE UNIVERSITET, priority 2020, published 2023).

Experiments:
S. thermophilus CS1980 [1] = test: Lactose hydrolysis: monolaurin- versus ethanol-permeabilized cells; type: cell-based, Streptococcus thermophilus; conditions: for stability of the whole-cell catalyst: 100 μg/ml monolaurin or 45% (v/v) ethanol, 10 min at 28° C.
Description: S. thermophilus CS1980 was permeabilized for 10 minutes at 28° C. using (i) 100 μg/ml monolaurin in POM buffer or (ii) 45% (v/v) ethanol for 10 minutes, or (iii) not permeabilized (control). Hydrolysis of lactose in POM buffer (50 g/l lactose) at 50° C. was carried out at a cell concentration of approximately 100 mg/l.

[2] = system: S. thermophilus CS1980 cells; test: Lactose hydrolysis by permeabilized S. thermophilus CS1980 cells; type: cell-based, Streptococcus thermophilus; conditions: for effectiveness in cell permeabilization: 100 mg/L agent, 100 mg/l S. thermophilus cells, POM buffer
Description: S. thermophilus strains were grown in 500-ml Erlenmeyer flasks containing 200 mL of medium at 37° C. for 16 h without agitation. 2 mL of an overnight culture was used as inoculum. Cells were collected by centrifugation at 10,000×g for 10 min at 4° C., washed once with sterile POM buffer (50 mM K2HPO4/KH2PO4, 1 mM MgCl2, pH 7.4) and finally re-suspended in POM buffer to an optical density (OD600) of 0.3, corresponding to approximately 0.1 g/L (dry weight basis). For permeabilization, cell suspensions were dispensed into sterile tubes (1 mL per tube) and centrifuged in a microcentrifuge at 10,000×g for 5 min at 4° C. After decanting the supernatants, cell pellets were resuspended in 1 mL POM buffer containing different concentrations (10 mg/l and 100 mg/l) of monolaurin (Toronto Research Chemicals, Toronto, Canada), and were maintained for 10 min at 28° C. Non permeabilized cells in POM buffer were used as control. 100 mg/l of monomyristin was also tested as premeabilization agent. The cells were resuspended in POM buffered lactose (50 g/L) solution. The hydrolysis was carried out at 50° C. for 2 h. The concentration of lactose, glucose and galactose was determined on an Ultimate 3000 high-performance liquid chromatography (HPLC) system (Dionex) equipped with an Aminex HPX-87H column (Bio-Rad) and a Shodex RI-101 detector (Showa Denko K.K.). The column oven temperature was set to 60° C., and the mobile phase consisted of 5 mM H2SO4. The flow rate used was 0.5 mL/min.

[3] = system: Lactococcus lactis biovar. diacetylactis RD1M5 cells; test: Acetoin production from pyruvate by permeabilized RD1M5 cells; type: cell-based; conditions: 100 mg/L monolaurin, 20 min at 30° C.; 700 mg/L cells, 100 mM pyruvate, 1 h
Description: Lactococcus lactis biovar. diacetylactis RD1M5 was permeabilized as described in example 1.2, using 100 mg/L monolaurin for 20 min at 30° C. 700 mg/L cells were suspended in POM buffer solution with 100 mM pyruvate. After 1 h, the cells were removed and the supernatant was used to quantify the acetoin concentration. Quantification of lactose, lactate, acetoin, and citrate were carried out using an Ultimate high-performance liquid chromatography system equipped with a Aminex HPX-87H column (300×7.8 mm column) (Bio-Rad, Hercules, USA) and a Shodex RI-101 refractive index detector (Showa Denko K.K., Tokyo, Japan). The mobile phase was 5 mM H2SO4 with a flow rate of 0.5 mL/min and the column oven temperature was maintained at 60° C.

S. thermophilus CS1980 [4] = test: Permeabilization of S. thermophilus CS1980 at different temperatures; type: cell-based, Streptococcus thermophilus; conditions: permeabilization temperatures 20-50° C.
Description: […] Controls are prepared without addition of monolaurin in the permeabilization step. Hydrolysis of lactose by monolaurin-treated cells is carried out in a POM buffered solution.

CCO [ethanol, reference compound]
stability of the whole-cell catalyst (S. thermophilus CS1980 [1]): compromised the stability of the whole-cell catalyst

CCCCCCCCCCCCCC(=O)OCC(O)CO (stereo not drawn) [Monomyristin, monomyristin]
effectiveness in cell permeabilization [2]: same effectiveness in cell permeabilization as monolaurin

CCCCCCCCCCCC(=O)OCC(O)CO (stereo not drawn) [monolaurin]
effectiveness in cell permeabilization [2]: efficiently permeabilizes the cells
lactose hydrolyzed by permeabilized cells ([2]; cells permeabilized 10 min at 28° C., 50 g/L lactose, 2 hours at 50° C., 100 mg/L cells (dry weight)): 55%
hydrolysis by cells treated with too low monolaurin concentration ([2]; too low monolaurin concentration (10 mg/l tested), 50 g/L lactose, 50° C.): neglectable
acetoin produced from pyruvate compared to non-treated cells [3]: much higher concentrations of acetoin
efficiency of permeabilization over temperature range (S. thermophilus CS1980 [4]): equally efficient
stability of the whole-cell catalyst (S. thermophilus CS1980 [1]): higher stability
lactose conversion by permeabilized cells (S. thermophilus CS1980 [1]; permeabilized 10 min at 28° C., 100 μg/ml monolaurin, 50 g/l lactose, 50° C., about 100 mg/l cells): perform better than the control as well as the ethanol-permeabilized cells
